Values of other authors as cited in US20220386610A1, “FUNGICIDAL COMBINATIONS” (UPL Corporation Limited, priority 2019, published 2022).

System: soybean rust
Conditions: for control: 2012/13 season

Row | SMILES | control [%] | efficiency (reduced level) (after ten seasons) [%] | efficiency (starting level) (before the reduction over ten seasons) [%]
1 | CC(C)(C)C(O)(CCc1ccc(Cl)cc1)Cn1cncn1 (stereo not shown) [tebuconazole] | 42 | 24 | 90
2 | CC(C1CC1)C(O)(Cn1cncn1)c1ccc(Cl)cc1 (stereo not shown) [cyproconazole] | 38 | – | –
